Where two headings read alike, the source gives them in different places.
System: cultured human mast cells (CHMC), IgE-induced degranulation
Test: CHMC low cell density IgE activation: tryptase assay
Format: cell-based
Settings: CHMC low cell density
Method: Inhibition of degranulation was measured at both low and high cell density by quantifying the release of the granule specific factors tryptase, histamine and hexosaminidase. Inhibition of release and/or synthesis of lipid mediators was assessed by measuring the release of leukotriene LTC4 and inhibition of release and/or synthesis of cytokines was monitored by quantifying TNF-α, IL-6 and IL-13. Tryptase and hexosaminidase were quantified using fluorogenic substrates as described in their respective examples. […] The protocols of the various assays are provided below.
A second phase is performed to convert the expanded CD34-negative progenitor cells into differentiated mucosal mast cells. These mucosal cultured human mast cells (“CHMC”) are derived from CD34+ cells isolated from umbilical cord blood and treated to form a proliferated population of CD34-negative progenitor cells, as described above. […] Also, the cytokine composition of the medium was modified such that it contained SCF (200 ng/mL) and recombinant human IL-6 (200 ng/mL; Peprotech, Catalog No. 200-06 reconstituted to 100 ug/mL in sterile 10 mM acetic acid) (“CM/SCF/IL-6 medium”).
Pellet CHMC cells (980 rpm, 10 min) and resuspend in pre-warmed MT. Add 65 ul of cells to each 96-well plate. Depending on the degranulation activity for each particular CHMC donor, load 1000-1500 cells/well. Mix four times followed by a 1 hr incubation at 37° C. […] Stimulate cells by adding 25 ul of 6× anti-IgE solution to the appropriate plates. Add 25 ul MT to un-stimulated control wells. Mix twice following addition of the anti-IgE. Incubate at 37° C. for 30 minutes. […] Spin plates at 1000 rpm for 10 min to pellet cells. Transfer 25 ul of supernatant to a 96-well black bottom plate and add 100 ul of freshly diluted tryptase substrate solution to each well. Incubate plates at room temperature for 30 min.
In Table 1, all reported values are IC50s (in μM). […] In Table 1, all reported values are IC50s (in μM).

[1] = 3pt, read-out: LD Tryptase, CHMC, IgE, 3pt
[2] = 8pt, read-out: LD Tryptase, CHMC, IgE, 8pt

SMILES: CC1(C)Oc2ccc(Nc3nc(Nc4ccc5c(cnn5CCCN5C(=O)CCCC5=O)c4)ncc3F)nc2NC1=O [Compound 862, N4-(2,2-Dimethyl-3-oxo-4H-5-pyrid[1,4]oxazin-6-yl)-N2-[1-[3-(2,6-dioxopiperidino]propyl)indazol-5-yl]-5-fluoro-2,4-pyrimidinediamine]
- IC50 [1]: < 10 µM
- IC50 [2]: < 10 µM

SMILES: CCOCCCn1ncc2cc(Nc3ncc(F)c(Nc4ccc5c(n4)NC(=O)C(C)(C)O5)n3)ccc21 [Compound 875, N4-(2,2-Dimethyl-3-oxo-4H-5-pyrid[1,4]oxazin-6-yl)-N2-[1-(3-ethoxypropyl)indazol-5-yl]-5-fluoro-2,4-pyrimidinediamine]
- IC50 [1]: < 10 µM
- IC50 [2]: < 10 µM

SMILES: Cn1c(=O)[nH]c2cc(Nc3ncc(F)c(Nc4ccc5c(n4)NC(=O)C(C)(C)O5)n3)ccc21 [Compound 908, N4-(2,2-Dimethyl-3-oxo-4H-5-pyrid[1,4]oxazin-6-yl)-N2-(2,3-dihydro-1-methyl-2-oxo-benzimidazol-5-yl)-5-fluoro-2,4-pyrimidinediamine]
- IC50 [1]: < 10 µM
- IC50 [2]: < 10 µM

SMILES: CC1(C)Oc2ccc(Nc3nc(Nc4ccc5oncc5c4)ncc3F)nc2NC1=O [Compound 928, N2-(1,2-Benzisoxazol-5-yl)-N4-(2,2-dimethyl-3-oxo-4H-5-pyrido[1,4]oxazin-6-yl)-5-fluoro-2,4-pyrimidinediamine]
- IC50 [2]: < 10 µM

SMILES: CCn1c(C)nc2cc(Nc3ncc(F)c(Nc4ccc5c(n4)NC(=O)C(C)(C)O5)n3)ccc21 [Compound 936, N4-(2,2-Dimethyl-3-oxo-4H-5-pyrido[1,4]oxazin-6-yl)-N2-(1-ethyl-2-methylbenzimidazol-5-yl)-5-fluoro-2,4-pyrimidinediamine]
- IC50 [1]: < 10 µM

SMILES: CC1(C)Oc2ccc(Nc3nc(Nc4ccc5c(c4)nc(C(F)(F)F)n5CCCO)ncc3F)nc2NC1=O [Compound 941, N4-(2,2-Dimethyl-3-oxo-4H-5-pyrido[1,4]oxazin-6-yl)-5-fluoro-N2-[1-(3-hydroxypropyl)-2-trifluoromethylbenzimidazol-5-yl]-2,4-pyrimidinediamine]
- IC50 [1]: < 10 µM
- IC50 [2]: < 10 µM

SMILES: C[C@@H]1Oc2ccc(Nc3nc(Nc4ccc5c(c4)nc(N4CCOCC4)n5C)ncc3F)cc2NC1=O [Compound 945, (S)-5-Fluoro-N2-[1-methyl-2-(4-morpholino)benzimidazol-5-yl]-N4-(2-methyl-3-oxo-2H,4H-benz[1,4]oxazin-6-yl)-2,4-pyrimidinediamine]
- IC50 [1]: < 10 µM
- IC50 [2]: < 10 µM

SMILES: Cn1c(N2CCOCC2)nc2cc(Nc3ncc(F)c(Nc4ccc5c(n4)NC(=O)C(C)(C)O5)n3)ccc21 [Compound 946, N4-(2,2-Dimethyl-3-oxo-4H-5-pyrido[1,4]oxazin-6-yl)-5-fluoro-N2-[1-methyl-2-(4-morpholino)benzimidazol-5-yl]-2,4-pyrimidinediamine]
- IC50 [1]: < 10 µM
- IC50 [2]: < 10 µM

SMILES: Cc1nc2cc(Nc3ncc(F)c(Nc4ccc5c(n4)NC(=O)C(C)(C)O5)n3)ccc2n1CCCO [Compound 951, N4-(2,2-Dimethyl-3-oxo-4H-5-pyrido[1,4]oxazin-6-yl)-5-fluoro-N2-[1-(3-hydroxypropyl)-2-methylbenzimidazol-5-yl]-2,4-pyrimidinediamine]
- IC50 [1]: < 10 µM
- IC50 [2]: < 10 µM

SMILES: CC(=O)NCCCn1c(C)nc2cc(Nc3ncc(F)c(Nc4ccc5c(n4)NC(=O)C(C)(C)O5)n3)ccc21 [Compound 953, N2-[1-[3-(N-Acetylamino)propyl]-2-methylbenzimidazol-5-yl]-N4-(2,2-Dimethyl-3-oxo-4H-5-pyrido[1,4]oxazin-6-yl)-5-fluoro-2,4-pyrimidinediamine]
- IC50 [1]: < 10 µM
- IC50 [2]: < 10 µM

SMILES: Cn1c(CN2CCOCC2)nc2cc(Nc3ncc(F)c(Nc4ccc5c(c4)NC(=O)C(C)(C)O5)n3)ccc21 [Compound 956, N4-(2,2-Dimethyl-3-oxo-4H-benz[1,4]oxazin-6-yl)-5-fluoro-N2-[1-methyl-2-(4-morpholinomethyl)benzimidazol-5-yl]-2,4-pyrimidinediamine]
- IC50 [2]: < 10 µM

Reference: patent US7560466B2, “Methods of treating or preventing autoimmune diseases with 2,4-pyrimidinediamine compounds” (Rigel Pharmaceuticals, Inc., priority 2003, dated 2009)
